Laboratory results as given in publication PMC5983823, “Screening of Natural Product Derivatives Identifies Two Structurally Related Flavonoids as Potent Quorum Sensing Inhibitors against Gram-Negative Bacteria” (International Journal of Molecular Sciences, 2018).

Columns and labels:
[1] = test system: RhlI/RhlR controlled rhamnolipid biosynthesis in P. aeruginosa; parameters: method as in ref 73 = [73]; 73. Manner S. Fallarero A. Abo Akademi University and University of Helsinki, Finland Evaluation of the Effects of the Leads in Rhamnolipid Biosynthesis Personal communication 2017; details: personal communication ref 73; cited from earlier work
[2] = test system: P. aeruginosa ATCC 9027; experiment: Crystal violet staining assay, transition from microcolonies to fully formed biofilms; type: cell-based; details: Pseudomonas aeruginosa, ATCC9027, P. aeruginosa ATCC 9027, mean ± SD, read-out: Inhibitory activity on the transition from microcolonies to fully formed biofilms
Experimental: (§1) Crystal violet-based biomass staining assay was performed to assess the effects of the compounds on the transition from microcolonies to fully formed as recently described in [26] with minor modifications. Briefly, diluted cultures of exponentially grown P. aeruginosa ATCC 9027, ATCC 15442 and PA01, and E. coli K-12 (10^6 CFU/mL) were added to the 96-microtiter well plates (200 µL per well) to form microcolonies for two hours (37 °C). At the end of this period, bacterial suspensions were removed, compounds at a final concentration of 400 µM and fresh LB media were added, and plates were incubated at 37 °C, with shaking (200 rpm) for additional 22 h. After the incubation period, media was discarded and the biofilms were washed once with sterile Milli-Q (MQ)-water. Biomass was fixed with methanol for 15 min followed by staining with 0.23% (v/v) crystal violet (Sigma-Aldrich, Munich, Germany) solution prepared in MQ-water (200 µL per well) for 5 min. Thereafter, wells were washed twice with MQ-water and 200 µL of 96% ethanol was added to the wells. Absorbance was measured at 595 nm using Varioskan Flash after 1 h.

[3] = test system: P. aeruginosa PAO1; experiment: as above; type: cell-based; details: Pseudomonas aeruginosa, P. aeruginosa PAO1, mean ± SD, read-out: Inhibitory activity on the transition from microcolonies to fully formed biofilms
Experimental: as §1

[4] = test system: P. aeruginosa PAO1; experiment: Swarming motility assay; type: cell-based; details: Pseudomonas aeruginosa, PAO1, read-out: Inhibition of swarming motility
Experimental: Assays were performed according to the protocols previously described in [30, 74] with some modifications. The swarming agar was prepared in MQ-water consisting of 0.3% (w/v) agar, 1% (w/v) peptone, 0.5% (w/v) yeast extract and 0.5% (w/v) sodium chloride, and the swimming agar similarly but without yeast extract. Compounds at a final concentration of 400 µM and 100 µM were pre-mixed with 5 mL of agar, and poured over solidified LB agar plates (10 mL/petri dish) as overlays. The plates were allowed to dry at 30 °C for three hours followed by point inoculation with 2 µL of P. aeruginosa PAO1 (~10^8 CFU/mL) and incubation at 37 °C for 18 h. Quercetin was used as a control. Diameters of the swarming and swimming zones were measured after the incubation periods.

[5] = test system: C. violaceum CV026; experiment: Violacein extraction assay (QS-mediated violacein production), mutant strain with exogenous autoinducer; type: cell-based, Chromobacterium violaceum; details: Chromobacterium violaceum, CV026, 24 h, read-out: Inhibition-% of violacein production
Experimental: The initial screening of compound library was conducted using two strains of C. violaceum as model bacterium, and two assays (violacein extraction and resazurin staining) in parallel as recently optimized in [26]. For the screening assays, overnight cultures of C. violaceum were diluted in LB broth supplemented with yeast extract (LBY) (0.1% w/v, Sigma Aldrich, St. Louis, MO, USA). Culture of C. violaceum CV026 was further supplemented with 0.5 µM N-(β-ketocaproyl)-L-Homoserine lactone (3-O-C6-(L)-HSL, Cayman chemicals, Ann Arbor, MI, USA) to induce the violacein production. Bacteria (10^6 CFU/mL) was exposed to compounds (400 µM) in a total volume of 200 µL in 96-microtiter well plates (Nunc, Roskilde, Denmark), and incubated at 27 °C, with shaking at 200 rpm for 24 h. DMSO was added in untreated control wells and bacteria-free wells with only LBY were included controls. Additionally, autoinducer-free wells containing only bacteria were included in C. violaceum CV026 plates. Plates were prepared in duplicates. Quercetin dihydrate (Carl Roth GmbH, Karlsruhe, Germany) at 400 µM was used as positive control in violacein extraction assay, and azithromycin (Cayman chemicals, Ann Arbor, MI, USA) at 10 µM in viability assay. Both control compounds were prepared in DMSO. DMSO concentration was 2.5% throughout the experiments.
After incubation period of 24 h, plates were centrifuged (Allegra™ X-12R Benchtop centrifuge, Beckman Coulter Inc., Fullerton, CA, USA) at 3000 rpm for 10 min to precipitate the violacein. Supernatants were discarded from the wells by pipetting, and pellets were re-suspended in 200 μL of 96% ethanol by scraping and mixing followed by centrifugation (3000 rpm, 10 min). Thereafter, 100 μL of supernatants were transferred to sterile 96-microtiter well plates, and violacein was quantified by reading the optical density at 595 nm using Varioskan Flash. Inhibition of violacein production was expressed as inhibition percentages of the untreated biofilms (Equation (1)):Inhibition-% = [(untreated control OD595 − sample OD595)/(untreated control OD595 − media control OD595)] × 100%(1) in which untreated control = C. violaceum + DMSO, media control = LBY, and sample = C. violaceum treated with a compound. Later on, violacein extraction assay was also utilized for the determination of half inhibitory concentrations of the compounds.

[6] = test system: mouse monocyte macrophage (RAW 264.7) cells; experiment: Cytotoxicity testing (CellTiter Glo); type: cell-based; details: 24 h exposure
Experimental: (§2) Human lung (HL) epithelial cells were grown in RPMI 1640 (Biowhittaker, Lonza, Viewers, Bornem, Belgium) supplemented with 10% inactivated fetal bovine serum (FBS), 2 mM L-glutamine and gentamycin 20 µg/mL, and mouse monocyte macrophage RAW 264.7 cells in DMEM medium supplemented with 10% FBS and 20 µg/mL gentamycin. Cells (3 × 10^5 cells/mL) were seeded into 96-microtiter well plates (Cellstar TC, Greiner Bio-One GmbH, Frickenhausen, Germany), 200 µL per well, and incubated at 37 °C in 5% CO2 24 h before exposure to the compounds. After the incubation, culture medium was discarded, the wells were washed with PBS, and the compound dilutions prepared in culture media were added as triplicates to a final volume of 200 µL. Usnic acid (200 µM, Sigma Aldrich, St. Louis, MO, USA) was included as positive control and DMSO (1%) as solvent control. Plates were incubated for additional 24 h. At the end of 24 h, media was removed, wells were washed twice with PBS and 100 µL of PBS was added. CellTiter Glo® reagent (Promega, Madison, WI, USA) was prepared according to manufacturer’s instructions, and 100 µL was added to the wells. The plates were shaken for two minutes and equilibrated at room temperature for 10 min prior to measuring the luminescence using Varioskan LUX multimode plate reader (Thermo Scientific, Vantaa, Finland). Inhibition of cell viability was calculated in relation to the untreated cells.

[7] = test system: human lung (HL) epithelial cells; experiment: Cytotoxicity testing (CellTiter Glo); type: cell-based; details: 24 h exposure
Experimental: as §2

SMILES	Effect on rhamnolipid biosynthesis [1]	inhibition at 400 µM [2] [%]	inhibition at 400 µM [3] [%]	inhibition at 400 µM [4] [%]	inhibition at 400 µM [5] [%]	Inhibition-% of cell viability ([6]; 10 µM)	Inhibition-% of cell viability ([6]; 40 µM)	Inhibition-% of cell viability ([7]; 10 µM)	Inhibition-% of cell viability ([7]; 40 µM)	Inhibition-% of cell viability ([7]; 100 µM)	Inhibition-% of cell viability ([6]; 100 µM)
CCC(=O)Oc1c(-c2ccccc2Cl)oc2ccccc2c1=O [Compound 2117, 2-(2-chlorophenyl)-4-oxochromen-3-yl propanoate]	did not affect	27.2 ± 6	42.3 ± 12.4	72.1	102	N.I.	N.I.	N.I.	N.I.	11.2 ± 4.9%	
CCCCCCCCCC(=O)Oc1c(-c2ccc(OC)cc2)oc2ccccc2c1=O [Compound 2896, 2-(4-methoxyphenyl)-4-oxochromen-3-yl decanoate]	did not affect	22.5 ± 3.2	11.6 ± 11.1	69.8	91.2	N.I.	N.I.	N.I.	N.I.	did not display any effects on the cell viability and N.I.	did not display any effects on the cell viability and N.I.
